In patent US9156801B2, “2-substituted oleanolic acid derivative, method preparing for same, and application thereof” (HANGZHOU BENSHENG PHARMACEUTICAL CO., LTD., priority 2011, dated 2015):
Values after ≈ are worked out from the molar mass of the structure shown.

What was measured:
[1] = system: CNE cell line; assay: solid tumor cell growth inhibition, MTT; format: cell-based; conditions: Homo sapiens, 72 h; for inhibition at 16 µg/mL: 16 μg/mL compound, read-out: IR (cell proliferation inhibition rate)
In short: (§1)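 Growth inhibition by MTT: 4000 cells/well seeded, 24 h pre-culture, then 72 h compound treatment across a concentration range at 37° C, 5% CO2, in DMEM high glucose with 10% FBS.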

[2] = system: CaES-17 cell line; assay: solid tumor cell growth inhibition, MTT; format: cell-based; conditions: Homo sapiens, CaEs17; for inhibition at 16 µg/mL: CaES-17, 16 μg/mL compound, 72 h, read-out: IR (cell proliferation inhibition rate); for IC50: CaES-17, 72 h
In short: as §1

[3] = system: MGC 803 cell line; assay: solid tumor cell growth inhibition, MTT; format: cell-based; conditions: Homo sapiens; for inhibition at 16 µg/mL: MGC 803, 16 μg/mL compound, 72 h, read-out: IR (cell proliferation inhibition rate); for IC50: MGC 803, 72 h
In short: as §1

[4] = system: A549 cell line; assay: solid tumor cell growth inhibition, MTT; format: cell-based; conditions: Homo sapiens; for IC50: A549, 72 h; for inhibition at 16 µg/mL: A549, 16 μg/mL compound, 72 h, read-out: IR (cell proliferation inhibition rate)
In short: as §1

[5] = system: Hep-2 cell line; assay: solid tumor cell growth inhibition, MTT; format: cell-based; conditions: Homo sapiens; for IC50: HEp-2, 72 h; for inhibition at 16 µg/mL: Hep-2, 16 μg/mL compound, 72 h, read-out: IR (cell proliferation inhibition rate)
In short: as §1

[6] = system: RKO cell line; assay: solid tumor cell growth inhibition, MTT; format: cell-based; conditions: Homo sapiens, 72 h; for inhibition at 16 µg/mL: 16 μg/mL compound, read-out: IR (cell proliferation inhibition rate)
In short: as §1

[7] = system: PANC-1 cell line; assay: solid tumor cell growth inhibition, MTT; format: cell-based; conditions: Homo sapiens; for IC50: PANC-1, 72 h; for inhibition at 16 µg/mL: PANC-1, 16 μg/mL compound, 72 h, read-out: IR (cell proliferation inhibition rate)
In short: as §1

[8] = system: MG-63 cell line; assay: solid tumor cell growth inhibition, MTT; format: cell-based; conditions: Homo sapiens; for IC50: MG-63, 72 h; for inhibition at 16 µg/mL: MG-63, 16 μg/mL compound, 72 h, read-out: IR (cell proliferation inhibition rate)
In short: as §1

[9] = system: SK-OV-3 cell line; assay: solid tumor cell growth inhibition, MTT; format: cell-based; conditions: Homo sapiens; for IC50: SK-OV-3, 72 h; for inhibition at 16 µg/mL: SK-OV-3, 16 μg/mL compound, 72 h, read-out: IR (cell proliferation inhibition rate)
In short: as §1

[10] = system: U87 MG cell line; assay: solid tumor cell growth inhibition, MTT; format: cell-based; conditions: Homo sapiens, U-87 MG, 72 h; for inhibition at 16 µg/mL: 16 μg/mL compound, read-out: IR (cell proliferation inhibition rate)
In short: as §1

[11] = system: Hela cell line; assay: solid tumor cell growth inhibition, MTT; format: cell-based; conditions: Homo sapiens, 72 h; for IC50: HeLa; for inhibition at 16 µg/mL: Hela, 16 μg/mL compound, read-out: IR (cell proliferation inhibition rate)
In short: as §1

[12] = system: PC-3 cell line; assay: solid tumor cell growth inhibition, MTT; format: cell-based; conditions: Homo sapiens; for IC50: PC-3, 72 h; for inhibition at 16 µg/mL: PC-3, 16 μg/mL compound, 72 h, read-out: IR (cell proliferation inhibition rate)
In short: as §1

[13] = system: Becap37 cell line; assay: solid tumor cell growth inhibition, MTT; format: cell-based; conditions: Homo sapiens; for inhibition at 16 µg/mL: Becap37, 16 μg/mL compound, 72 h, read-out: IR (cell proliferation inhibition rate); for IC50: Becap37, 72 h
In short: as §1

[14] = system: RPMI8226 cell line; assay: multiple myeloma cell growth inhibition, MTT; format: cell-based; conditions: Homo sapiens, RPMI-8226; for inhibition at 16 µg/mL: RPMI8226, 16 μg/mL compound, 72 h, read-out: IR (cell proliferation inhibition rate); for IC50: RPMI8226, 72 h
In short: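 Viability was measured by MTT after a 72 h compound exposure (37° C, 5% CO2) of RPMI8226 myeloma cells seeded at 6000 per well in 1640 medium with 10% fetal bovine serum. Growth inhibition was expressed relative to untreated cells, taken as 0%.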

[15] = system: Jurkat cell line; assay: leukemia cell growth inhibition, MTT; format: cell-based; conditions: Homo sapiens, 72 h; for inhibition at 16 µg/mL: 16 μg/mL compound, read-out: IR (cell proliferation inhibition rate)
In short: (§2)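 Cells seeded at 6000/well, RPMI 1640 + 10% FBS; compound dilution series added; 72 h, 37° C, 5% CO2. Readout MTT; untreated control = 0% inhibition.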

[16] = system: NB4 cell line; assay: leukemia cell growth inhibition, MTT; format: cell-based; conditions: Homo sapiens, NB-4; for inhibition at 16 µg/mL: NB4, 16 μg/mL compound, 72 h, read-out: IR (cell proliferation inhibition rate); for IC50: NB4, 72 h
In short: as §2

[17] = system: H9 cell line; assay: leukemia cell growth inhibition, MTT; format: cell-based; conditions: Homo sapiens; for IC50: H9, 72 h; for inhibition at 16 µg/mL: H9, 16 μg/mL compound, 72 h, read-out: IR (cell proliferation inhibition rate)
In short: as §2

[18] = system: Kasumi-1 cell line; assay: leukemia cell growth inhibition, MTT; format: cell-based; conditions: Homo sapiens; for inhibition at 16 µg/mL: Kasumi-1, 16 μg/mL compound, 72 h, read-out: IR (cell proliferation inhibition rate); for IC50: Kasumi-1, 72 h
In short: as §2

[19] = system: K562/adr cell line; assay: leukemia cell growth inhibition, MTT; format: cell-based; conditions: Homo sapiens, 72 h; for IC50: K562/Adr; for inhibition at 16 µg/mL: K562/adr, 16 μg/mL compound, read-out: IR (cell proliferation inhibition rate)
In short: as §2

[20] = system: Hep G2 cell line; assay: solid tumor cell growth inhibition, MTT; format: cell-based, human; conditions: Homo sapiens; for inhibition at 16 µg/mL: HepG2, 72 h, Hep G2, 16 μg/mL compound, 72 h, read-out: IR (cell proliferation inhibition rate); for IC50: HepG2, Hep G2, 72 h
In short: as §1

| IC50 [1] [µg/mL] | IC50 [2] [µg/mL] | IC50 [3] [µg/mL] | IC50 [4] [µg/mL] | IC50 [5] [µg/mL] | IC50 [6] [µg/mL] | IC50 [7] [µg/mL] | IC50 [8] [µg/mL] | IC50 [9] [µg/mL] | IC50 [10] [µg/mL] | Compound | inhibition at 16 µg/mL [1] [%] | inhibition at 16 µg/mL [2] [%] | inhibition at 16 µg/mL [3] [%] | inhibition at 16 µg/mL [4] [%] | inhibition at 16 µg/mL [5] [%] | inhibition at 16 µg/mL [6] [%] | inhibition at 16 µg/mL [7] [%] | inhibition at 16 µg/mL [8] [%] | inhibition at 16 µg/mL [9] [%] | inhibition at 16 µg/mL [10] [%] | also measured |
| --- | --- | --- | --- | --- | --- | --- | --- | --- | --- | --- | --- | --- | --- | --- | --- | --- | --- | --- | --- | --- | --- |
| > 16 | > 16 | > 16 | > 16 | > 16 | > 16 | > 16 | > 16 | > 16 | > 16 | COCCCNC(=O)C1C[C@]2(C)[C@H]3CC=C4[C@@H]5CC(C)(C)CC[C@]5(C(=O)OC)CC[C@@]4(C)[C@]3(C)CC[C@H]2C(C)(C)C1=O (stereo partly drawn) [BS-OA-052] | 9.9 | -8 | -12.7 | 3.1 | -11.3 | -48.6 | 8.4 | -33.5 | 29.5 | 10.9 | IC50 [11]: > 16 µg/mL; inhibition at 16 µg/mL [11]: 25.6%; IC50 [12]: > 16 µg/mL; inhibition at 16 µg/mL [12]: 25.4%; inhibition at 16 µg/mL [13]: -12%; IC50 [13]: > 16 µg/mL; inhibition at 16 µg/mL [14]: 25.2%; IC50 [14]: > 16 µg/mL; inhibition at 16 µg/mL [15]: -5%; IC50 [15]: > 16 µg/mL; inhibition at 16 µg/mL [16]: 46.7%; IC50 [16]: 16 µg/mL (≈ 27.4 µM); IC50 [17]: > 16 µg/mL; inhibition at 16 µg/mL [17]: 38%; inhibition at 16 µg/mL [18]: 19%; IC50 [18]: > 16 µg/mL; IC50 [19]: 12.3 µg/mL (≈ 21 µM); inhibition at 16 µg/mL [19]: 64%; inhibition at 16 µg/mL [20]: 10%; IC50 [20]: > 16 µg/mL |
| > 16 | > 16 | > 16 | > 16 | > 16 | > 16 | > 16 | > 16 | > 16 | > 16 | CCOCCNC(=O)C1C[C@@]2(C)C(CC[C@]3(C)C2CC=C2C4CC(C)(C)CC[C@]4(C(=O)OC)CC[C@]23C)C(C)(C)C1=O (stereo partly drawn) [BS-OA-053] | 9.9 | -13.1 | 7.8 | 2 | -10 | -55.6 | -3.3 | -32.5 | 22.7 | 20.1 | IC50 [11]: > 16 µg/mL; inhibition at 16 µg/mL [11]: 27.5%; IC50 [12]: > 16 µg/mL; inhibition at 16 µg/mL [12]: 38.8%; inhibition at 16 µg/mL [13]: -10.2%; IC50 [13]: > 16 µg/mL; inhibition at 16 µg/mL [14]: 29.5%; IC50 [14]: > 16 µg/mL; inhibition at 16 µg/mL [15]: 13%; IC50 [15]: > 16 µg/mL; inhibition at 16 µg/mL [16]: 71.3%; IC50 [16]: 10.7 µg/mL (≈ 18.3 µM); IC50 [17]: 15.5 µg/mL (≈ 26.6 µM); inhibition at 16 µg/mL [17]: 54.6%; inhibition at 16 µg/mL [18]: 23.2%; IC50 [18]: > 16 µg/mL; IC50 [19]: 10.8 µg/mL (≈ 18.4 µM); inhibition at 16 µg/mL [19]: 60.9%; inhibition at 16 µg/mL [20]: 6.8%; IC50 [20]: > 16 µg/mL |
| > 16 | > 16 | > 16 | > 16 | > 16 | > 16 | > 16 | > 16 | > 16 | > 16 | COC(=O)[C@]12CCC(C)(C)C[C@H]1C1=CC[C@@H]3[C@@]4(C)CC(C(=O)NCCN5CCOCC5)C(=O)C(C)(C)[C@@H]4CC[C@@]3(C)[C@]1(C)CC2 (stereo partly drawn) [BS-OA-059] | 20.6 | 34 | -7.4 | 11.8 | 0 | 1.8 | 10.4 | 27 | 35.2 | 30.6 | IC50 [11]: 16 µg/mL (≈ 25.6 µM); inhibition at 16 µg/mL [11]: 51.8%; IC50 [12]: > 16 µg/mL; inhibition at 16 µg/mL [12]: 34.1%; inhibition at 16 µg/mL [13]: 4.7%; IC50 [13]: > 16 µg/mL; inhibition at 16 µg/mL [14]: 96.6%; IC50 [14]: 7.18 µg/mL (≈ 11.5 µM); inhibition at 16 µg/mL [15]: 23.8%; IC50 [15]: > 16 µg/mL; inhibition at 16 µg/mL [16]: 86.7%; IC50 [16]: 9.74 µg/mL (≈ 15.6 µM); IC50 [17]: 12.7 µg/mL (≈ 20.4 µM); inhibition at 16 µg/mL [17]: 67.7%; inhibition at 16 µg/mL [18]: 48.7%; IC50 [18]: 16 µg/mL (≈ 25.6 µM); IC50 [19]: 8.87 µg/mL (≈ 14.2 µM); inhibition at 16 µg/mL [19]: 80.5%; inhibition at 16 µg/mL [20]: 0.6%; IC50 [20]: > 16 µg/mL |
